Measurements: ChEMBL document CHEMBL5108002, “Design, synthesis, and biological evaluation of novel 7-substituted 10,11-methylenedioxy-camptothecin derivatives against drug-resistant small-cell lung cancer in vitro and in vivo” (Eur J Med Chem, 2022)
Activity calls are given as the source filed them. No cut-off for these calls is given here.

How the values were obtained:
NCI-H69 [1] = experiment: Induction of apoptosis in human NCI-H69 cells assessed as reduction in XIAP mRNA expression at 0.1 to 100 nM incubated for 24 hrs by RT-PCR analysis; format: functional, cell-based; settings: dose 0.1-100 nM
NCI-H69 [2] = experiment: Induction of apoptosis in human NCI-H69 cells assessed as reduction in Mcl-1 mRNA expression at 0.1 to 100 nM incubated for 24 hrs by RT-PCR analysis; format: functional, cell-based; settings: dose 0.1-100 nM
H69AR [3] = experiment: Induction of apoptosis in human NCI-H69AR cells assessed as late apoptotic cells at 1 nM incubated for 24 hrs by AnnexinV-FITC/PI staining based flow cytometry analysis (reference value: 2.99 %); format: functional
NCI-H446 [4] = experiment: Antitumor activity against etoposide/cisplatin combination-resistant human NCI-H446 cells xenografted in BALB/c nude mouse assessed as tumor growth inhibition at 3 mg/kg, IG administered once a week and measured 3 times a week relative to control; format: functional; settings: NCI-H446, po, read-out: TGI
H69AR [5] = experiment: Induction of apoptosis in human NCI-H69AR cells assessed as reduction in Mcl-1 mRNA expression at 0.1 to 100 nM incubated for 24 hrs by RT-PCR analysis; format: functional, cell-based; settings: dose 0.1-100 nM
NCI-H446 [6] = experiment: Induction of apoptosis in human NCI-H446 cells assessed as inhibition of Mcl-1 protein expression incubated for 24 hrs by Western blot analysis; format: functional, cell-based; settings: dose 0.1-100 nM
[7] = Resistance index, ratio of IC50 for antiproliferative activity against Irinotecan-resistant human NCI-H446 cells to IC50 for antiproliferative activity against human NCI-H446 cells; format: functional
NCI-H446 [8] = experiment: Induction of apoptosis in human NCI-H446 cells assessed as late apoptotic cells at 1 nM incubated for 24 hrs by AnnexinV-FITC/PI staining based flow cytometry analysis (reference value: 0.37 %); format: functional
H69AR [9] = experiment: Induction of apoptosis in human NCI-H69AR cells assessed as late apoptotic cells at 10 nM incubated for 24 hrs by AnnexinV-FITC/PI staining based flow cytometry analysis (reference value: 2.99 %); format: functional
NCI-H446 [10] = experiment: Antitumor activity against human NCI-H446 cells xenografted in BALB/c nude mouse assessed as tumor growth inhibition at 3 mg/kg, IG administered once a week for 28 days by electronic caliper method relative to control; format: functional; settings: NCI-H446, po, 672 h, time 28 day, read-out: TGI
H69AR [11] = experiment: Induction of apoptosis in human NCI-H69AR cells assessed as early apoptotic cells at 1 nM incubated for 24 hrs by AnnexinV-FITC/PI staining based flow cytometry analysis (reference value: 0.35 %); format: functional
H69AR [12] = experiment: Induction of apoptosis in human NCI-H69AR cells assessed as inhibition of survivin protein expression at 0.1 to 100 nM incubated for 24 hrs by Western blot analysis; format: functional, cell-based; settings: dose 0.1-100 nM
H69AR [13] = experiment: Induction of apoptosis in human NCI-H69AR cells assessed as reduction in Bcl-2 mRNA expression at 0.1 to 100 nM incubated for 24 hrs by RT-PCR analysis; format: functional, cell-based; settings: dose 0.1-100 nM
NCI-H446 [14] = experiment: Induction of apoptosis in human NCI-H446 cells assessed as reduction in Bcl-2 mRNA level at 0.1 to 100 nM incubated for 24 hrs by RT-PCR analysis; format: functional, cell-based; settings: dose 0.1-100 nM
NCI-H69 [15] = experiment: Induction of apoptosis in human NCI-H69 cells assessed as reduction in survivin mRNA expression at 0.1 to 100 nM incubated for 24 hrs by RT-PCR analysis; format: functional, cell-based; settings: dose 0.1-100 nM
NCI-H446 [16] = experiment: Antitumor activity against Irinotecan-resistant human NCI-H446 cells xenografted in BALB/c nude mouse assessed as tumor weight at 3 mg/kg, IG administered once a week and measured 3 times a week for 35 days; format: functional; settings: time 35 day
HepG2 = experiment: Antiproliferative activity against human HepG2 cells assessed as inhibition of cell growth incubated for 72 hrs by SRB assay; format: functional, cell-based; settings: HepG2, 72 h
NCI-H446 [17] = experiment: Induction of apoptosis in human NCI-H446 cells assessed as late apoptotic cells at 10 nM incubated for 24 hrs by AnnexinV-FITC/PI staining based flow cytometry analysis (reference value: 0.37 %); format: functional
NCI-H446 [18] = experiment: Induction of apoptosis in human NCI-H446 cells assessed as early apoptotic cells at 10 nM incubated for 24 hrs by AnnexinV-FITC/PI staining based flow cytometry analysis (reference value: 3.1 %); format: functional
NCI-H69 [19] = experiment: Induction of apoptosis in human NCI-H69 cells assessed as inhibition of survivin protein expression at 0.1 to 100 nM incubated for 24 hrs by Western blot analysis; format: functional, cell-based; settings: dose 0.1-100 nM
NCI-H69 [20] = experiment: Induction of apoptosis in human NCI-H69 cells assessed as increase in cleaved-caspase 9 protein expression at 0.1 to 100 nM measured after 24 hrs by Western blot analysis; format: functional, cell-based; settings: dose 0.1-100 nM
NCI-H446 [21] = experiment: Induction of apoptosis in human NCI-H446 cells assessed as inhibition of Bcl-2 protein expression incubated for 24 hrs by Western blot analysis; format: functional, cell-based; settings: dose 0.1-100 nM
Bel-7402 = experiment: Antiproliferative activity against human Bel-7402 cells assessed as inhibition of cell growth incubated for 72 hrs by SRB assay; format: functional, cell-based; settings: Bel-7402, 72 h
H69AR [22] = experiment: Induction of apoptosis in human NCI-H69AR cells assessed as inhibition of Mcl-1 protein expression at 0.1 to 100 nM incubated for 24 hrs by Western blot analysis; format: functional, cell-based; settings: dose 0.1-100 nM
H69AR [23] = experiment: Induction of apoptosis in human NCI-H69AR cells assessed as reduction in XIAP mRNA expression at 0.1 to 100 nM incubated for 24 hrs by RT-PCR analysis; format: functional, cell-based; settings: dose 0.1-100 nM
H69AR [24] = experiment: Induction of apoptosis in human NCI-H69AR cells assessed as dead cells at 100 nM incubated for 24 hrs by AnnexinV-FITC/PI staining based flow cytometry analysis (reference value: 1.92 %); format: functional
NCI-H446 [25] = experiment: Induction of apoptosis in human NCI-H446 cells assessed as dead cells at 0.1 nM incubated for 24 hrs by AnnexinV-FITC/PI staining based flow cytometry analysis (reference value: 0.22 %); format: functional
NCI-H69 [26] = experiment: Induction of apoptosis in human NCI-H69 cells assessed as reduction in Bcl-2 mRNA expression at 0.1 to 100 nM incubated for 24 hrs by RT-PCR analysis; format: functional, cell-based; settings: dose 0.1-100 nM
SH-SY5Y = experiment: Antiproliferative activity against human SH-SY5Y cells assessed as inhibition of cell growth incubated for 72 hrs by SRB assay; format: functional, cell-based
NCI-H69 [27] = experiment: Antiproliferative activity against human NCI-H69 cells assessed as inhibition of cell growth incubated for 72 hrs by SRB assay; format: functional, cell-based; settings: NCI-H69, 72 h
H69AR [28] = experiment: Induction of apoptosis in human NCI-H69AR cells assessed as reduction in survivin mRNA expression at 0.1 to 100 nM incubated for 24 hrs by RT-PCR analysis; format: functional, cell-based; settings: dose 0.1-100 nM
[29] = Toxicity in BALB/c nude mouse xenografted with Irinotecan-resistant human NCI-H446 cells assessed as reduction in body weight at 3 mg/kg, IG administered once a week and measured 3 times a week for 35 days; format: organism-based; settings: in vivo, po, 840 h, time 35 day
NCI-H446 [30] = experiment: Induction of apoptosis in human NCI-H446 cells assessed as dead cells at 10 nM incubated for 24 hrs by AnnexinV-FITC/PI staining based flow cytometry analysis (reference value: 0.22 %); format: functional

Structure (SMILES): CC[C@@]1(O)C(=O)OCc2c1cc1n(c2=O)Cc2c-1nc1cc3c(cc1c2-c1ccoc1)OCO3
- Activity (NCI-H69 [1]): Active
- Activity (NCI-H69 [2]): Active
- Activity (H69AR [3]): 7.02%
- inhibition in vivo at 3 mg/kg (NCI-H446 [4]): 84.5%
- Activity (H69AR [5]): Active
- inhibition (NCI-H446 [6]): Active
- Ratio IC50 [7]: 0.64
- Activity (NCI-H446 [8]): 9.6%
- Activity (H69AR [9]): 12.48%
- inhibition in vivo at 3 mg/kg (NCI-H446 [10]): 95.5%
- Activity (H69AR [11]): 0.62%
- inhibition (H69AR [12]): Active
- Activity (H69AR [13]): Active
- Activity (NCI-H446 [14]): Active
- Activity (NCI-H69 [15]): Active
- Activity (NCI-H446 [16]): 0.15 g
- IC50 (HepG2): 1.42 nM
- Activity (NCI-H446 [17]): 6.25%
- Activity (NCI-H446 [18]): 15.81%
- inhibition (NCI-H69 [19]): Active
- Activity (NCI-H69 [20]): Active
- inhibition (NCI-H446 [21]): Active
- IC50 (Bel-7402): 3.8 nM
- inhibition (H69AR [22]): Active
- Activity (H69AR [23]): Active
- Activity (H69AR [24]): 1.47%
- Activity (NCI-H446 [25]): 0.91%
- Activity (NCI-H69 [26]): Active
- IC50 (SH-SY5Y): 7.91 nM
- IC50 (NCI-H69 [27]): 14.6 nM
- Activity (H69AR [28]): Active
- Activity [29]: Non-Toxic
- Activity (NCI-H446 [30]): 2.78%
